Assays:
K-562 cells = experiment: Cell growth inhibition assay (CellTiter-Glo), K-562; type: cell-based, human; conditions: Homo sapiens, K562
Summary of the method: (§1)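 Cellular ATP (CellTiter-Glo luminescence) measured after 4 days at 37° C., 5% CO2 of compound exposure, top concentration 10 μM in 3-fold steps, 0.1% DMSO. Readings corrected for no-cell background and a day-0 plate, normalised to vehicle and medium wells; half-maximal and total growth inhibition from four-parameter curves.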

MV-4-11 cells = experiment: Cell growth inhibition assay (CellTiter-Glo), MV-4-11; type: cell-based; conditions: Homo sapiens, MV4-11
Summary of the method: as §1

THP-1 cells = experiment: Cell growth inhibition assay (CellTiter-Glo), THP-1; type: cell-based; conditions: Homo sapiens
Summary of the method: as §1

Compound	GI50 (K-562 cells)	GI50 (MV-4-11 cells)	GI50 (THP-1 cells)
Cc1cc(N2C(=O)c3c(c(CO)nn3C3CC3)[C@H]2c2ccc(Cl)cc2)cn2c(C)nnc12 [Example 166, (R)-4-(4-chlorophenyl)-1-cyclopropyl-5-(3,8-dimethyl-[1,2,4]triazolo[4,3-a]pyridin-6-yl)-3-(hydroxymethyl)-4,5-dihydropyrrolo-[3,4-c]pyrazol-6(1H)-one]	94.6 nM	9.38 nM	17.1 nM
Cc1nn(C[C@H](O)C(F)(F)F)c2c1[C@@H](c1ccc(Cl)cc1)N(c1cc(C)c3nnc(C)n3c1)C2=O [Example 167, (R)-4-(4-chlorophenyl)-5-(3,8-dimethyl-[1,2,4]triazolo[4,3-a]pyridin-6-yl)-3-methyl-1-((S)-3,3,3-trifluoro-2-hydroxypropyl)-4,5-dihydropyrrolo-[3,4-c]pyrazol-6(1H)-one]	294 nM	27.6 nM	59.6 nM
Cc1nn(C(C)C)c2c1C(c1ccc(Cl)cc1F)N(c1cc(C)c3nnc(C)n3c1)C2=O (stereo not drawn) [Example 168, 4-(4-chloro-2-fluorophenyl)-5-(3,8-dimethyl-[1,2,4]triazolo[4,3-a]pyridin-6-yl)-1-isopropyl-3-methyl-4,5-dihydropyrrolo[3,4-c]pyrazol-6(1H)-one]	105 nM	24.1 nM	35.5 nM
Cc1cc(N2C(=O)c3nn(C(C)C)c(C)c3C2c2ccc(Cl)cc2F)cn2c(C)nnc12 (stereo not drawn) [Example 169, 4-(4-chloro-2-fluorophenyl)-5-(3,8-dimethyl-[1,2,4]triazolo[4,3-a]pyridin-6-yl)-2-isopropyl-3-methyl-4,5-dihydropyrrolo[3,4-c]pyrazol-6(2H)-one]	276 nM	31.1 nM	50.5 nM
CCn1nc(C)c2c1C(=O)N(c1cc(C)c(=O)n(C)c1)C2c1ccc(Cl)cc1F (stereo not drawn) [Example 170, 4-(4-chloro-2-fluorophenyl)-5-(1,5-dimethyl-6-oxo-1,6-dihydropyridin-3-yl)-1-ethyl-3-methyl-4,5-dihydropyrrolo-[3,4-c]pyrazol-6(1H)-one]	48.5 nM	7.66 nM	13.4 nM
CCn1nc2c(c1C)C(c1ccc(Cl)cc1F)N(c1cc(C)c(=O)n(C)c1)C2=O (stereo not drawn) [Example 171, 4-(4-chloro-2-fluorophenyl)-5-(1,5-dimethyl-6-oxo-1,6-dihydropyridin-3-yl)-2-ethyl-3-methyl-4,5-dihydropyrrolo[3,4-c]pyrazol-6(2H)-one]	442 nM	93.8 nM	118 nM
Cc1n[nH]c2c1C(c1ccc(F)cc1F)N(c1cc(C)c3nnc(C)n3c1)C2=O (stereo not drawn) [Example 172, 4-(2,4-difluorophenyl)-5-(3,8-dimethyl-[1,2,4]triazolo[4,3-a]pyridin-6-yl)-3-methyl-4,5-dihydropyrrolo[3,4-c]pyrazol-6(2H)-one]	1080 nM	176 nM	254 nM
COc1ncccc1-n1nc(C)c2c1C(=O)N(c1cc(C)c3nnc(C)n3c1)C2c1ccc(F)cc1F (stereo not drawn) [Example 173, 4-(2,4-difluorophenyl)-5-(3,8-dimethyl-[1,2,4]triazolo[4,3-a]pyridin-6-yl)-1-(2-methoxypyridin-3-yl)-3-methyl-4,5-dihydropyrrolo-[3,4-c]pyrazol-6(1H)-one]	328 nM	57.1 nM	91.6 nM
Cc1nn(C(C)C)c2c1C(c1ccc(F)cc1F)N(c1cc(C)c3nnc(C)n3c1)C2=O (stereo not drawn) [Example 174, 4-(2,4-difluorophenyl)-5-(3,8-dimethyl-[1,2,4]triazolo[4,3-a]pyridin-6-yl)-1-isopropyl-3-methyl-4,5-dihydropyrrolo[3,4-c]pyrazol-6(1H)-one]	158 nM	26.7 nM	43.8 nM
Cc1cc(N2C(=O)c3nn(C(C)C)c(C)c3C2c2ccc(F)cc2F)cn2c(C)nnc12 (stereo not drawn) [Example 175, 4-(2,4-difluorophenyl)-5-(3,8-dimethyl-[1,2,4]triazolo[4,3-a]pyridin-6-yl)-2-isopropyl-3-methyl-4,5-dihydropyrrolo-[3,4-c]pyrazol-6(2H)-one]	192 nM	42.2 nM	66.2 nM
Cc1nn(C2CC2)c2c1C(c1ccc(F)cc1F)N(c1cc(C)c3nnc(C)n3c1)C2=O (stereo not drawn) [Example 176, 1-cyclopropyl-4-(2,4-difluorophenyl)-5-(3,8-dimethyl-[1,2,4]triazolo[4,3-a]pyridin-6-yl)-3-methyl-4,5-dihydropyrrolo-[3,4-c]pyrazol-6(1H)-one]	145 nM	30.3 nM	55.6 nM
COc1ccccc1-n1nc(C)c2c1C(=O)N(c1cc(C)c3nnc(C)n3c1)C2c1ccc(F)cc1F (stereo not drawn) [Example 177, 4-(2,4-difluorophenyl)-5-(3,8-dimethyl-[1,2,4]triazolo[4,3-a]pyridin-6-yl)-1-(2-methoxyphenyl)-3-methyl-4,5-dihydropyrrolo-[3,4-c]pyrazol-6(1H)-one]	331 nM	67.5 nM	64.4 nM
Cc1nn(C2CC2)c2c1C(c1ccc(Cl)cc1F)N(c1cc(C)c3nnc(C)n3c1)C2=O (stereo not drawn) [Example 178, 4-(4-chloro-2-fluorophenyl)-1-cyclopropyl-5-(3,8-dimethyl-[1,2,4]triazolo[4,3-a]pyridin-6-yl)-3-methyl-4,5-dihydropyrrolo[3,4-c]pyrazol-6(1H)-one]	137 nM	28.2 nM	42.5 nM
Cc1nn(C2CC2)c2c1C(c1ccc(Cl)cc1F)N(c1cc(C)c(=O)n(C)c1)C2=O (stereo not drawn) [Example 179, 4-(4-chloro-2-fluorophenyl)-1-cyclopropyl-5-(1,5-dimethyl-6-oxo-1,6-dihydropyridin-3-yl)-3-methyl-4,5-dihydropyrrolo[3,4-c]pyrazol-6(1H)-one]	372 nM	77.4 nM	112 nM
Cc1nn(C(C)C)c2c1C(c1ccc(Cl)cc1F)N(c1cc(C)c(=O)n(C)c1)C2=O (stereo not drawn) [Example 180, 4-(4-chloro-2-fluorophenyl)-5-(1,5-dimethyl-6-oxo-1,6-dihydropyridin-3-yl)-1-isopropyl-3-methyl-4,5-dihydropyrrolo[3,4-c]pyrazol-6(1H)-one]	266 nM	68 nM	81.4 nM
CCn1nc(C)c2c1C(=O)N(c1cc(C)c3nnc(C)n3c1)C2c1ccc(F)cc1F (stereo not drawn) [Example 181, 4-(2,4-difluorophenyl)-5-(3,8-dimethyl-[1,2,4]triazolo[4,3-a]pyridin-6-yl)-1-ethyl-3-methyl-4,5-dihydropyrrolo[3,4-c]pyrazol-6(1H)-one]	160 nM	47.1 nM	51.9 nM
CCn1nc2c(c1C)C(c1ccc(F)cc1F)N(c1cc(C)c3nnc(C)n3c1)C2=O (stereo not drawn) [Example 182, 4-(2,4-difluorophenyl)-5-(3,8-dimethyl-[1,2,4]triazolo[4,3-a]pyridin-6-yl)-2-ethyl-3-methyl-4,5-dihydropyrrolo-[3,4-c]pyrazol-6(2H)-one]	280 nM	63.2 nM	87.5 nM
Cc1n[nH]c2c1C(c1ccc(Cl)cc1F)N(c1cc(C)c3nnc(C)n3c1)C2=O (stereo not drawn) [Example 183, 4-(4-chloro-2-fluorophenyl)-5-(3,8-dimethyl-[1,2,4]triazolo[4,3-a]pyridin-6-yl)-3-methyl-4,5-dihydropyrrolo-[3,4-c]pyrazol-6(2H)-one]	659 nM	76.1 nM	135 nM
COc1ncccc1-n1nc(C)c2c1C(=O)N(c1cc(C)c3nnc(C)n3c1)C2c1ccc(Cl)cc1F (stereo not drawn) [Example 184, 4-(4-chloro-2-fluorophenyl)-5-(3,8-dimethyl-[1,2,4]triazolo[4,3-a]pyridin-6-yl)-1-(2-methoxypyridin-3-yl)-3-methyl-4,5-dihydropyrrolo-[3,4-c]pyrazol-6(1H)-one]	394 nM	59.6 nM	131 nM
CCn1nc(C)c2c1C(=O)N(c1cc(C)c3nnc(C)n3c1)C2c1ccc(Cl)cc1F (stereo not drawn) [Example 185, 4-(4-chloro-2-fluorophenyl)-5-(3,8-dimethyl-[1,2,4]triazolo[4,3-a]pyridin-6-yl)-1-ethyl-3-methyl-4,5-dihydropyrrolo-[3,4-c]pyrazol-6(1H)-one]	136 nM	24.2 nM	36.8 nM
CCn1nc2c(c1C)C(c1ccc(Cl)cc1F)N(c1cc(C)c3nnc(C)n3c1)C2=O (stereo not drawn) [Example 186, 4-(4-chloro-2-fluorophenyl)-5-(3,8-dimethyl-[1,2,4]triazolo[4,3-a]pyridin-6-yl)-2-ethyl-3-methyl-4,5-dihydropyrrolo-[3,4-c]pyrazol-6(2H)-one]	208 nM	44.1 nM	61.5 nM
COc1ccccc1-n1nc(C)c2c1C(=O)N(c1cc(C)c3nnc(C)n3c1)C2c1ccc(Cl)cc1F (stereo not drawn) [Example 187, 4-(4-chloro-2-fluorophenyl)-5-(3,8-dimethyl-[1,2,4]triazolo[4,3-a]pyridin-6-yl)-1-(2-methoxyphenyl)-3-methyl-4,5-dihydropyrrolo-[3,4-c]pyrazol-6(1H)-one]	655 nM	144 nM	168 nM
Cc1nn(C(C)C)c2c1[C@@H](c1ccc(Cl)cc1F)N(c1cc(C)c3nnc(C)n3c1)C2=O [Example 189, (S)-4-(4-chloro-2-fluorophenyl)-5-(3,8-dimethyl-[1,2,4]triazolo[4,3-a]pyridin-6-yl)-1-isopropyl-3-methyl-4,5-dihydropyrrolo[3,4-c]pyrazol-6(1H)-one]	88.5 nM	14.1 nM	11.3 nM
COc1ncccc1-n1nc2c(c1C)C(c1ccc(F)cc1F)N(c1cc(C)c3nnc(C)n3c1)C2=O (stereo not drawn) [Example 193, 4-(2,4-difluorophenyl)-5-(3,8-dimethyl-[1,2,4]triazolo[4,3-a]pyridin-6-yl)-2-(2-methoxypyridin-3-yl)-3-methyl-4,5-dihydropyrrolo-[3,4-c]pyrazol-6(2H)-one]	202 nM	58 nM	66.2 nM

Reference: patent publication US20160095843A1, “PYRAZOLOPYRROLIDINE DERIVATIVES AND THEIR USE IN THE TREATMENT OF DISEASE” (NOVARTIS AG, priority 2013, published 2016)
